By pKi is commonly meant the Ki on a negative log10 scale, so that one unit is a factor of ten. Higher therefore signals a small Ki.

Structures are written as SMILES. pKi: −log10 of the molar value.

The target in assay [1] is Stromelysin-1 (Homo sapiens, UniProt P08254).
Description: Inhibition of human fibroblast stromelysin, matrix metalloprotease-3
The target in assay [2] is Matrix metalloproteinase-9 (Homo sapiens, UniProt P14780).
Description: Inhibition of human Matrix metalloprotease-9
Assay [3] deals with T1, Interstitial collagenase (Homo sapiens, UniProt P03956).
T1 sequence (P03956 whole entry): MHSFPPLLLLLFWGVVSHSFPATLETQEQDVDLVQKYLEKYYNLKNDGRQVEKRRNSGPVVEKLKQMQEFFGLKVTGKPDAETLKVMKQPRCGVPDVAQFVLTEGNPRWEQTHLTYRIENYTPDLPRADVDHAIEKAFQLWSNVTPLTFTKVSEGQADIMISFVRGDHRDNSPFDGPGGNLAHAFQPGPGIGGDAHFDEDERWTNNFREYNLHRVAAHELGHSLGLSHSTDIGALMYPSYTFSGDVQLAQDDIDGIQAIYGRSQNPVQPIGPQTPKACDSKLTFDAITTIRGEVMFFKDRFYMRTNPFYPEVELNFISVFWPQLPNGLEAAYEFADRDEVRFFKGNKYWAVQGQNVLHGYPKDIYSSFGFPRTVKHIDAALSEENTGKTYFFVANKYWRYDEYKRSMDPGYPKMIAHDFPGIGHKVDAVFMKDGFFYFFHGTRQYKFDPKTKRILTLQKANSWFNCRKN
Description: Inhibition of human fibroblast collagenase, matrix metalloprotease-1

For assay [4], the target named is Neutrophil collagenase (Homo sapiens, UniProt P22894).
Chain of Neutrophil collagenase (P22894 whole entry): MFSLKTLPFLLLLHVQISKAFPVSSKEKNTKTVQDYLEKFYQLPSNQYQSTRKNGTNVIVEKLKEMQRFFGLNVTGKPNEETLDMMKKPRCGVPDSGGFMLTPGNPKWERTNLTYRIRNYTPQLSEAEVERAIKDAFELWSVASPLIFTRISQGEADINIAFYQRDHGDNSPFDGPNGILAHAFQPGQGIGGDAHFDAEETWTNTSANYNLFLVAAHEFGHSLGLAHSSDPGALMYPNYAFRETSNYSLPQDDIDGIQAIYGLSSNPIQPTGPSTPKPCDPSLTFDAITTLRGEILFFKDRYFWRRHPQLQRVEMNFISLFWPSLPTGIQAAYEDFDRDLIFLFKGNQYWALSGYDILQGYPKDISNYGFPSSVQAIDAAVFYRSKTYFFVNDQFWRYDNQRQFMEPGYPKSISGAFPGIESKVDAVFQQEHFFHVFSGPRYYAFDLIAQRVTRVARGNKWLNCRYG
Description: Inhibition of human Matrix metalloprotease-8

Chain of Matrix metalloproteinase-9 (P14780 whole entry): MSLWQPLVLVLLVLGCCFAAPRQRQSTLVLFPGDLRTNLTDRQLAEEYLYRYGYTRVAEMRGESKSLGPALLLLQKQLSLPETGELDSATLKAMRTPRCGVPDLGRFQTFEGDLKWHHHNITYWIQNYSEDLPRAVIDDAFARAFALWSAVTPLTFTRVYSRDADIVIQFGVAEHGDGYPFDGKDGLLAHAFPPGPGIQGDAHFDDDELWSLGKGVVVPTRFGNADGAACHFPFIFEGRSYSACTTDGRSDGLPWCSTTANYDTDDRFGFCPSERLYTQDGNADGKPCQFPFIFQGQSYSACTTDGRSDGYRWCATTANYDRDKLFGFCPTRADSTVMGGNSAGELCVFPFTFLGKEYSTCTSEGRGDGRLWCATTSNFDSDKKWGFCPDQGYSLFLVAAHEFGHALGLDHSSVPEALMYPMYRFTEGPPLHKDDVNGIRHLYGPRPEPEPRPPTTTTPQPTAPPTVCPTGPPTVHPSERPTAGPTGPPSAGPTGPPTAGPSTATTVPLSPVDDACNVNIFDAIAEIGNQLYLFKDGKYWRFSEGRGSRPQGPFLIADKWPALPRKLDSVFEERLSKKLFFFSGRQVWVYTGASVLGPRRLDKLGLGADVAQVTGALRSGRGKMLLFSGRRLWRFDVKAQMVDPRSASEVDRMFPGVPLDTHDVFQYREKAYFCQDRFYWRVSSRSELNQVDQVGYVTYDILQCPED
Chain of Stromelysin-1 (P08254 whole entry): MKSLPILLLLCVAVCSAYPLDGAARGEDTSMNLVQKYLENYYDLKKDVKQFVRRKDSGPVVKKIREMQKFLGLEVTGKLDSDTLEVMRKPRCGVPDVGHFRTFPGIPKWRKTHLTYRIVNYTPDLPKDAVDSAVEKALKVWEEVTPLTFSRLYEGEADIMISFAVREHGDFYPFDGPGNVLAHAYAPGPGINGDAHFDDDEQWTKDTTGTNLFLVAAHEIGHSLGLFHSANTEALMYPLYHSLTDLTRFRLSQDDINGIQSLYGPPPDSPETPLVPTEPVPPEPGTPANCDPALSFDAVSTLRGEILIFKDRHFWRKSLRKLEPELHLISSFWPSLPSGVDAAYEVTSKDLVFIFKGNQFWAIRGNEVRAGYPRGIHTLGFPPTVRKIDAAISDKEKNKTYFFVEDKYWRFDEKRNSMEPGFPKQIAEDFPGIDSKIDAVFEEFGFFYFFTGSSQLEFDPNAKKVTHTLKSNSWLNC

`CNC(=O)[C@H](Cc1c[nH]c2ccccc12)NC(=O)[C@@H](CC(=O)NO)CC(C)C` [ILOMASTAT]: in assay [1], the pKi was 7.34.
Consider `CNC(=O)[C@H](Cc1c[nH]c2ccccc12)NC(=O)[C@H](C)CC(=O)NO`, for which the pKi in assay [2] was 6.30; in assay [3], 5.07; in assay [4] it was 5.38; in assay [1], 4.40.
Turning to `CCCCC[C@H](CC(=O)NO)C(=O)N[C@H](C(=O)N1CCCC1CO)C(C)C` (some centres undefined), the pKi in assay [2] was 6.48; in assay [3] it was 6.52; in assay [4], 6.72; in assay [1], 5.77.
Take `CNC(=O)[C@@H](NC(=O)[C@H](CCCCOCc1ccccc1)CC(=O)NO)C(C)(C)C`: the pKi in assay [2] was 7.96; in assay [4], 8.33; in assay [1], 7.41.
In assay [2], `CNC(=O)[C@H](Cc1ccccc1)NC(=O)[C@@H](CC(=O)NO)CC(C)C` gave a pKi of 8.85.
Regarding `CC[C@H](CC(=O)NO)C(=O)N[C@@H](Cc1c[nH]c2ccccc12)C(=O)NC`, the pKi is 7.70 in assay [2], 6.74 in assay [3], 7.00 in assay [4] and 5.57 in assay [1].
In assay [2], `CNC(=O)[C@H](Cc1ccccc1)NC(=O)[C@H](CCCCCOc1ccccc1)CC(=O)NO` had a pKi of 9.51.
Turning to `CCCCCc1ccc(OCCCC[C@H](CC(=O)NO)C(=O)N[C@H](C(=O)NC)C(C)(C)C)cc1`, the pKi in assay [2] was 8.42.
`CNC(=O)[C@H](Cc1ccccc1)NC(=O)[C@H](CCCCOCc1ccccc1)CC(=O)NO`: the negative-log Ki (pKi) in assay [2] is 8.48.
In assay [2], `CNC(=O)[C@H](Cc1ccccc1)NC(=O)[C@H](CCCCOc1ccccc1)CC(=O)NO` had a negative-log Ki (pKi) of 8.92.
Turning to `CNC(=O)CNC(=O)[C@H](CCCCOCc1ccccc1)CC(=O)NO`, the negative logarithm of the Ki (pKi) in assay [2] is 5.25; in assay [3] it was less than 7.00; in assay [4] it was 6.77; in assay [1], 5.46.
For `CNC(=O)[C@H](Cc1ccccc1)NC(=O)[C@H](CCCCCCc1ccccc1)CC(=O)NO`, the pKi in assay [2] is 8.89; in assay [3], 5.08; in assay [4], greater than 8.70; in assay [1] it was 7.96.

(Values after ChEMBL document CHEMBL1128130, “Hydroxamate inhibitors of human gelatinase B (92 kDa)” (Bioorg Med Chem Lett, 1995).)
